{
  "source": "the supplement of paper PMC9663587",
  "key": {"AZD7762": {"compound": "NC(=O)Nc1cc(-c2cccc(F)c2)sc1C(=O)N[C@H]1CCCNC1 [AZD7762]"}, "Ipatasertib/GDC0068": {"compound": "CC(C)NC[C@@H](C(=O)N1CCN(c2ncnc3c2[C@H](C)C[C@H]3O)CC1)c1ccc(Cl)cc1 [Ipatasertib/GDC0068]"}, "[1]": {"compound": "CCC1=CN=CN=C1N2CCN(CC2)CC3=NC4=C(N3)C=C(C=C4)C(F)(F)F"}, "Tivantinib/ARQ197": {"compound": "O=C1NC(=O)[C@@H](c2cn3c4c(cccc24)CCC3)[C@@H]1c1c[nH]c2ccccc12 [Tivantinib/ARQ197]"}, "[2]": {"compound": "CC(=O)Nc1cccc(-n2c(=O)n(C3CC3)c(=O)c3c(Nc4ccc(I)cc4F)n(C)c(=O)c(C)c32)c1"}, "Vorinostat": {"compound": "O=C(CCCCCCC(=O)Nc1ccccc1)NO [Vorinostat]"}, "[3]": {"compound": "CCN1CCN(Cc2ccc(Nc3ncc(F)c(-c4cc(F)c5nc(C)n(C(C)C)c5c4)n3)nc2)CC1"}, "[4]": {"compound": "CCc1cnn2c(NCc3ccc[n+]([O-])c3)cc(N3CCCC[C@H]3CCO)nc12", "assay": "increase in dead-cell fraction, 72 h; higher = more death;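 further: breast cancer cell lines in 384-well plates, stained with Hoechst plus LIVE/DEAD far red dye and imaged, cells above an LDR intensity threshold counted dead, Hoechst-negative corpses included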"}, "[5]": {"compound": "CC(=O)c1c(C)c2cnc(Nc3ccc(N4CCNCC4)cn3)nc2n(C2CCCC2)c1=O", "assay": "increase in dead-cell fraction, 72 h; higher = more death"}, "Neratinib/HKI272": {"compound": "CCOc1cc2ncc(C#N)c(Nc3ccc(OCc4ccccn4)c(Cl)c3)c2cc1NC(=O)/C=C/CN(C)C [Neratinib/HKI272]", "assay": "increase in dead-cell fraction, 72 h; higher = more death"}, "[6]": {"compound": "CCN1CCN(Cc2ccc(Nc3ncc(F)c(-c4cc(F)c5nc(C)n(C(C)C)c5c4)n3)nc2)CC1", "assay": "increase in dead-cell fraction, 72 h; higher = more death"}},
  "data": [
    {"cell line": "HCC1500", "values": [
      {"measurement": "GR50, 72 h", "setting": "AZD7762", "result": 0.0356, "unit": "µM"},
      {"measurement": "GR50, 72 h", "setting": "Ipatasertib/GDC0068", "result": "> 10", "unit": "µM"},
      {"measurement": "GR50, 72 h", "setting": "[1]", "result": 1.66, "unit": "µM"},
      {"measurement": "GR50, 72 h", "setting": "Tivantinib/ARQ197", "result": 0.115, "unit": "µM"},
      {"measurement": "GR50, 72 h", "setting": "[2]", "result": 0.142, "unit": "µM"},
      {"measurement": "GR50, 72 h", "setting": "Vorinostat", "result": 0.96, "unit": "µM"},
      {"measurement": "GR50, 72 h", "setting": "[3]", "result": 0.479, "unit": "µM"},
      {"measurement": "increase in dead-cell fraction", "setting": "[4]; 0.0001 µM", "result": 0.0119},
      {"measurement": "increase in dead-cell fraction", "setting": "[4]; 0.0003162 µM", "result": -0.0049},
      {"measurement": "increase in dead-cell fraction", "setting": "[4]; 0.001 µM", "result": 0.0055},
      {"measurement": "increase in dead-cell fraction", "setting": "[4]; 0.003162 µM", "result": 0.0001},
      {"measurement": "increase in dead-cell fraction", "setting": "[4]; 0.01 µM", "result": 0.0467},
      {"measurement": "increase in dead-cell fraction", "setting": "[4]; 0.03162 µM", "result": 0.285},
      {"measurement": "increase in dead-cell fraction", "setting": "[4]; 0.1 µM", "result": 0.499},
      {"measurement": "increase in dead-cell fraction", "setting": "[4]; 0.3162 µM", "result": 0.456},
      {"measurement": "increase in dead-cell fraction", "setting": "[4]; 1 µM", "result": 0.476},
      {"measurement": "increase in dead-cell fraction", "setting": "[5]; 0.0003162 µM", "result": -0.0019},
      {"measurement": "increase in dead-cell fraction", "setting": "[5]; 0.001 µM", "result": 0.0086},
      {"measurement": "increase in dead-cell fraction", "setting": "[5]; 0.003162 µM", "result": -0.0112},
      {"measurement": "increase in dead-cell fraction", "setting": "[5]; 0.01 µM", "result": 0.0091},
      {"measurement": "increase in dead-cell fraction", "setting": "[5]; 0.03162 µM", "result": 0.0038},
      {"measurement": "increase in dead-cell fraction", "setting": "[5]; 0.1 µM", "result": 0.019},
      {"measurement": "increase in dead-cell fraction", "setting": "[5]; 0.3162 µM", "result": 0.0086},
      {"measurement": "increase in dead-cell fraction", "setting": "[5]; 1 µM", "result": 0.009},
      {"measurement": "increase in dead-cell fraction", "setting": "[5]; 3.162 µM", "result": 0.0027},
      {"measurement": "increase in dead-cell fraction", "setting": "Neratinib/HKI272; 0.0003162 µM", "result": 0.0116},
      {"measurement": "increase in dead-cell fraction", "setting": "Neratinib/HKI272; 0.001 µM", "result": -0.0067},
      {"measurement": "increase in dead-cell fraction", "setting": "Neratinib/HKI272; 0.003162 µM", "result": 0.017},
      {"measurement": "increase in dead-cell fraction", "setting": "Neratinib/HKI272; 0.01 µM", "result": -0.0012},
      {"measurement": "increase in dead-cell fraction", "setting": "Neratinib/HKI272; 0.03162 µM", "result": 0.0316},
      {"measurement": "increase in dead-cell fraction", "setting": "Neratinib/HKI272; 0.1 µM", "result": 0.0224},
      {"measurement": "increase in dead-cell fraction", "setting": "Neratinib/HKI272; 0.3162 µM", "result": 0.0504},
      {"measurement": "increase in dead-cell fraction", "setting": "Neratinib/HKI272; 1 µM", "result": 0.0834},
      {"measurement": "increase in dead-cell fraction", "setting": "Neratinib/HKI272; 3.162 µM", "result": 0.331},
      {"measurement": "increase in dead-cell fraction", "setting": "[6]; 0.001 µM", "result": -0.0021},
      {"measurement": "increase in dead-cell fraction", "setting": "[6]; 0.003162 µM", "result": -0.0174},
      {"measurement": "increase in dead-cell fraction", "setting": "[6]; 0.01 µM", "result": -0.0129},
      {"measurement": "increase in dead-cell fraction", "setting": "[6]; 0.03162 µM", "result": -0.0035},
      {"measurement": "increase in dead-cell fraction", "setting": "[6]; 0.1 µM", "result": -0.0151},
      {"measurement": "increase in dead-cell fraction", "setting": "[6]; 0.3162 µM", "result": -0.0201},
      {"measurement": "increase in dead-cell fraction", "setting": "[6]; 1 µM", "result": -0.015},
      {"measurement": "increase in dead-cell fraction", "setting": "[6]; 3.162 µM", "result": -0.0276},
      {"measurement": "increase in dead-cell fraction", "setting": "[6]; 10 µM", "result": 0.0351}
    ]},
    {"cell line": "HCC1428", "values": [
      {"measurement": "GR50, 72 h", "setting": "AZD7762", "result": 0.4, "unit": "µM"},
      {"measurement": "GR50, 72 h", "setting": "Ipatasertib/GDC0068", "result": "> 10", "unit": "µM"},
      {"measurement": "GR50, 72 h", "setting": "[1]", "result": "> 10", "unit": "µM"},
      {"measurement": "GR50, 72 h", "setting": "Tivantinib/ARQ197", "result": 0.252, "unit": "µM"},
      {"measurement": "GR50, 72 h", "setting": "[2]", "result": "> 1", "unit": "µM"},
      {"measurement": "GR50, 72 h", "setting": "Vorinostat", "result": 0.835, "unit": "µM"},
      {"measurement": "GR50, 72 h", "setting": "[3]", "result": 0.00979, "unit": "µM"},
      {"measurement": "increase in dead-cell fraction", "setting": "[4]; 0.0001 µM", "result": 0.0044},
      {"measurement": "increase in dead-cell fraction", "setting": "[4]; 0.0003162 µM", "result": 0.0006},
      {"measurement": "increase in dead-cell fraction", "setting": "[4]; 0.001 µM", "result": 0.0016},
      {"measurement": "increase in dead-cell fraction", "setting": "[4]; 0.003162 µM", "result": -0.0135},
      {"measurement": "increase in dead-cell fraction", "setting": "[4]; 0.01 µM", "result": 0.0043},
      {"measurement": "increase in dead-cell fraction", "setting": "[4]; 0.03162 µM", "result": 0.283},
      {"measurement": "increase in dead-cell fraction", "setting": "[4]; 0.1 µM", "result": 0.562},
      {"measurement": "increase in dead-cell fraction", "setting": "[4]; 0.3162 µM", "result": 0.64},
      {"measurement": "increase in dead-cell fraction", "setting": "[4]; 1 µM", "result": 0.687},
      {"measurement": "increase in dead-cell fraction", "setting": "[5]; 0.0003162 µM", "result": 0.005},
      {"measurement": "increase in dead-cell fraction", "setting": "[5]; 0.001 µM", "result": -0.0004},
      {"measurement": "increase in dead-cell fraction", "setting": "[5]; 0.003162 µM", "result": -0.0052},
      {"measurement": "increase in dead-cell fraction", "setting": "[5]; 0.01 µM", "result": 0.0068},
      {"measurement": "increase in dead-cell fraction", "setting": "[5]; 0.03162 µM", "result": 0.0017},
      {"measurement": "increase in dead-cell fraction", "setting": "[5]; 0.1 µM", "result": 0.0007},
      {"measurement": "increase in dead-cell fraction", "setting": "[5]; 0.3162 µM", "result": 0.0117},
      {"measurement": "increase in dead-cell fraction", "setting": "[5]; 1 µM", "result": 0.0083},
      {"measurement": "increase in dead-cell fraction", "setting": "[5]; 3.162 µM", "result": 0.0097},
      {"measurement": "increase in dead-cell fraction", "setting": "Neratinib/HKI272; 0.0003162 µM", "result": 0.0076},
      {"measurement": "increase in dead-cell fraction", "setting": "Neratinib/HKI272; 0.001 µM", "result": 0.0073},
      {"measurement": "increase in dead-cell fraction", "setting": "Neratinib/HKI272; 0.003162 µM", "result": 0.0021},
      {"measurement": "increase in dead-cell fraction", "setting": "Neratinib/HKI272; 0.01 µM", "result": -0.0004},
      {"measurement": "increase in dead-cell fraction", "setting": "Neratinib/HKI272; 0.03162 µM", "result": 0.0008},
      {"measurement": "increase in dead-cell fraction", "setting": "Neratinib/HKI272; 0.1 µM", "result": 0.0018},
      {"measurement": "increase in dead-cell fraction", "setting": "Neratinib/HKI272; 0.3162 µM", "result": 0.0002},
      {"measurement": "increase in dead-cell fraction", "setting": "Neratinib/HKI272; 1 µM", "result": 0.0203},
      {"measurement": "increase in dead-cell fraction", "setting": "Neratinib/HKI272; 3.162 µM", "result": 0.217},
      {"measurement": "increase in dead-cell fraction", "setting": "[6]; 0.001 µM", "result": -0.0074},
      {"measurement": "increase in dead-cell fraction", "setting": "[6]; 0.003162 µM", "result": 0.0007},
      {"measurement": "increase in dead-cell fraction", "setting": "[6]; 0.01 µM", "result": 0.0093},
      {"measurement": "increase in dead-cell fraction", "setting": "[6]; 0.03162 µM", "result": 0.0115},
      {"measurement": "increase in dead-cell fraction", "setting": "[6]; 0.1 µM", "result": 0.0154},
      {"measurement": "increase in dead-cell fraction", "setting": "[6]; 0.3162 µM", "result": 0.0035},
      {"measurement": "increase in dead-cell fraction", "setting": "[6]; 1 µM", "result": 0.0027},
      {"measurement": "increase in dead-cell fraction", "setting": "[6]; 3.162 µM", "result": 0.0224},
      {"measurement": "increase in dead-cell fraction", "setting": "[6]; 10 µM", "result": 0.0617}
    ]}
  ]
}
